Results as given in patent publication US20260200849A1, “CATIONIC LIPIDS AND PREPARATION METHOD THEREOF” (RiboX Therapeutics HK Limited, priority 2024, published 2026).
“And” between values parts separate entries of the source, which are not always exact repeats. Equal values may be shown once. Read-outs that look alike come from different tables or passages of the source.

Assays:
Hep G2 cells [1] = test: In vitro toxicity: Hep G2 cell viability by CellTiter-Glo; format: cell-based; conditions: 72 hours post transfection, cell only = 100%
Description: 2E5 Hep G2 cells were transfected with 1 μg/mL RNA-LNPs. At 72 hours post transfection, cell viability (2-well repeat) was determined with the CellTiter-Glo® reagent kit, according to the kit protocol, measured by a luminometer. Cell only as control (100%).
The cell viability was calculated according to the following formula: […]

[2] = RNA encapsulation efficacy (EE %) by Quant-IT Ribogreen kit; format: physicochemical; conditions: LNP
Description: (§1) The LNP size and polydispersity index (PDI), determined by dynamic light scattering (DLS), and zeta potential were measured by a Zetasizer machine (Malvern). RNA concentration and encapsulation efficacy (EE %) were analyzed by the Quant-IT Ribogreen kit by calculating the percentage encapsulation at 100%—(RNA-LNPs/RNA-LNPs with Triton X-100).

MCP-1 = test: In vivo tolerability by IM: serum MCP-1 by Luminex; conditions: IM 1.0 mg/kg, male C57BL/6J mice N=3, Formulation 001, RNA 331
Description: 6-8 week old, male C57BL/6J mice (N=3) were injected with 1.0 mg*kg−1 of RNA-LNPs encoding for firefly-luciferase by intramuscular injection. At 2- and 24-hours post injection, about 40 μL blood was harvested and immediately added to the procoagulant containing tube. Stand for 30 min at room temperature and then centrifuged at 2500 g×10 min to obtain serum. About 15 μL serum samples were aliquoted for cytokine (MCP-1 and IL-6) detection by Luminex (ProcartaPlex Mouse 2-plex, Thermo). PBS group as negative control.

injection site skin = test: In vivo tolerability after intradermal injection: H&E staining of injection site skin; design: species or system C57BL/6J mice; key to Infiltration, mononuclear cells, dermis/subcutaneous, focal, Grade / Edema, subcutaneous, focal, Grade / Erosion, focal, Grade / Skin, Grade: 1==minimal; 2=mild; 3=moderate; 4=marked; 5=severe; N=Normal; NA=Not applicable; —=No data; conditions: intradermal 0.15 mg/kg, 72 h, Formulation 001, RNA 331; for Total score: sum of lesion grades of the group (N=3)
Description: 7-8 week old, female C57BL/6J mice (N=3) were injected with 0.15 mg*kg−1 of RNA-LNIPs encoding for firefly-luciferase by intradermal injection. At 72-hours post injection, injection site skin from each animal was collected in 10% formalin, for H&E staining. PBS group (N=2) as control. (Note: 1==minimal, 2=mild, 3=moderate, 4=marked, 5=severe; N=Normal; NA=Not applicable; —=No data)

Hep G2 cells [3] = test: In vitro expression: luciferase activity in Hep G2 cells transfected with RNA-LNPs; format: cell-based; conditions: 100 ng/mL RNA-LNPs, 72 hours post transfection
Description: 2E5 Hep G2 cells were transfected with 100 ng/mL of RNA-LNPs encoding for firefly-luciferase. At 72 hours post transfection, the cells were washed and lysed. The luciferase expression (2-well repeat) was determined in the cell lysates with the luciferase assay reagent kit (Promega), according to the kit protocol, luciferase activity was measured by a luminometer.

C57BL/6J mice = test: In vivo expression by ID, whole-body/injection site skin/lymph node luminescence; conditions: intradermal 0.15 mg/kg, 72 h post injection, female C57BL/6J mice N=3, Formulation 001, RNA 331
Description: 7-8 week old, female C57BL/6J mice (N=3) were injected with 0.15 mg*kg−1 of RNA-LNPs encoding for firefly-luciferase by intradermal injection. At 72-hours post injection, animals were intraperitoneally injected with 15 mg/mi of Luciferin substrate and whole-body/injection site skin/lymph node luminescence were determined by a bioluminescent in vivo imaging system (IVIS).

Balb/c mice = test: In vivo expression by IV, 0.05 mg/kg luciferase RNA-LNPs, IVIS luminescence; conditions: female Balb/c mice, 0.05 mg*kg−1 intravenous; for Whole body at 24 h (p/s) (Mean) / Whole body at 72 h (p/s) (Mean): Formulation No. 010, RNA No. 331; for Whole body at 24 h (p/s) (Mean): 24 hours post injection; for Whole body at 72 h (p/s) (Mean): 72 hours post injection
How it was run: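 Female Balb/c mice (7-8 weeks, N=3) received 0.05 mg*kg−1 firefly-luciferase RNA-LNPs IV. Luciferin (15 mg/ml) was given IP at 24 and 72 h post-dose for IVIS whole-body luminescence. A second run imaged whole body, liver and spleen at 24 h only.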

[4] = LNP size and polydispersity index (PDI) by dynamic light scattering (Zetasizer); format: physicochemical; conditions: for Size (nm): RNA No. 331
Description: as §1

[5] = In vivo lipid metabolism by IV: ionizable lipid concentration in plasma and liver by LC-MS/MS; design: species or system Sprague-Dawley (SD) rats; conditions: IV 0.15 mg/kg RNA-LNPs (hEPO), male SD rats, individual animals N=3; for concentration at 6 h / concentration at 1 h / concentration at 168 h: male, Sprague-Dawley, rat, iv, 0.15 mg/kg
How it was run: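 Male SD rats, 7-8 weeks old (N=3), given 0.15 mg*kg−1 hEPO-encoding RNA-LNPs IV. Plasma sampled at 1, 6, 96 and 168 h and liver at 6 and 168 h terminally; ionizable lipid quantified by LC-MS/MS, LLOQ 1 ng/mL plasma, 11 ng/g liver.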

[6] = 1 μg/mL RNA-LNPs, Formulation 001, RNA 331
[7] = Formulation No. 010, RNA No. 331, 1 μg/mL RNA-LNPs
[8] = Formulation No. 001, RNA No. 019 (hEPO)
[9] = Formulation No. 001, RNA No. 331
[10] = Formulation No. 010, RNA No. 331
[11] = Formulation No. 010, RNA No. 331 (firefly-luciferase)
[12] = Formulation No. 010 (Ionizable lipid:DSPC:cholesterol:DSPE-PEG2000 = 38:30:30:2, N/P 6)
[13] = liver, 6 h post injection, read-out: Liver (ng/g), ionizable lipid concentration
[14] = Formulation No. 001, RNA No. 331, 24-hours post injection

CCCCC/C=C\C/C=C\CCCCCCCC(=O)NC(COC(=O)NCCN1CCCCC1)C(=O)OCCCCCCCC(=O)OC(CCCCCCCC)CCCCCCCC (stereo not shown) [Lipid 549]
In vitro cell viability (%) (Mean) (Hep G2 cells [1]; [6]): 79.09% | In vitro cell viability (%) (Mean) (Hep G2 cells [1]; [7]): 88.89% | EE (%) [2, 8]: 94.25% | EE (%) [2, 9]: 94.58% | EE (%) [2, 10]: 96.68% | MCP-1 at 2 h (MCP-1): 299 pg/mL | MCP-1 at 24 h (MCP-1): 3980 pg/mL | Edema, subcutaneous, focal, Grade (injection site skin; per animal): — and 1 (2×) | Erosion, focal, Grade (injection site skin; per animal): — | Infiltration, mononuclear cells, dermis/subcutaneous, focal, Grade (injection site skin; per animal): — and 1 (2×) | Skin, Grade (injection site skin; per animal): N | Total score (injection site skin): 4 | In vitro Expression (Mean) (Hep G2 cells [3]; Formulation 001, RNA 331): 7.02E+05 | In vitro Expression (Mean) (Hep G2 cells [3]; [11]): 5.75E+05 | Injection site Skin (p/s) (C57BL/6J mice): 3.41E+06 p/s | Lymph node (p/s) (C57BL/6J mice): 3.17E+06 p/s | Whole body (p/s) (C57BL/6J mice): 4.38E+07 p/s | Whole body at 24 h (p/s) (Mean) (Balb/c mice): 2.75E+08 p/s | Whole body at 72 h (p/s) (Mean) (Balb/c mice): 7.85E+07 p/s | PDI [4, 8]: 0.04 | Size [4, 8]: 64.53 nm | PDI [4, 9]: 0.04 | Size [4, 9]: 61.34 nm | Size (nm) [4, 12]: 57.35 nm | PDI [4, 10]: 0.13

CCCCCCCC/C=C\CCCCCCCC(=O)NC(COC(=O)NCCN1CCCCC1)C(=O)OCCCCCCCCOC(=O)C(CCCCCC)CCCCCCCC (stereo not shown) [Lipid 700]
Plasma (ng/mL), ionizable lipid concentration ([5]; 1 h post injection): 1272 ng/mL and 1635 ng/mL | Liver (ng/g), ionizable lipid concentration ([5]; 6 h post injection): 25720 ng/g and 25028 ng/g | Plasma (ng/mL), ionizable lipid concentration ([5]; 6 h post injection): 359 ng/mL and 641 ng/mL and 966 ng/mL | Plasma (ng/mL), ionizable lipid concentration ([5]; 96 h post injection): 5.84 ng/mL and 4.4 ng/mL and 28.6 ng/mL | Liver (ng/g), ionizable lipid concentration ([5]; 168 h post injection): 696.6 ng/g and 191.6 ng/g and 236.8 ng/g | Plasma (ng/mL), ionizable lipid concentration ([5]; 168 h post injection): 1.24 ng/mL and 9.51 ng/mL | concentration at 6 h [5, 13]: 26800 ng/g | concentration at 1 h ([5]; plasma, 1 h post injection): 1440 ng/mL | In vitro cell viability (%) (Mean) (Hep G2 cells [1]; [6]): 78.82% | In vitro cell viability (%) (Mean) (Hep G2 cells [1]; [7]): 99.10% | EE (%) [2, 8]: 96.00% | EE (%) [2, 9]: 94.45% | EE (%) [2, 10]: 96.73% | MCP-1 at 2 h (MCP-1): 281 pg/mL | MCP-1 at 24 h (MCP-1): 3270 pg/mL | Edema, subcutaneous, focal, Grade (injection site skin; per animal): 1 (2×) and 2 | Erosion, focal, Grade (injection site skin; per animal): — | Infiltration, mononuclear cells, dermis/subcutaneous, focal, Grade (injection site skin; per animal): 1 | Total score (injection site skin): 7 | In vitro Expression (Mean) (Hep G2 cells [3]; Formulation 001, RNA 331): 7.16E+05 | In vitro Expression (Mean) (Hep G2 cells [3]; [11]): 3.61E+05 | Injection site Skin (p/s) (C57BL/6J mice): 1.75E+07 p/s | Lymph node (p/s) (C57BL/6J mice): 1.57E+06 p/s | Whole body (p/s) (C57BL/6J mice): 8.00E+07 p/s | Whole body at 24 h (p/s) (Mean) (Balb/c mice): 3.40E+08 p/s | Whole body at 72 h (p/s) (Mean) (Balb/c mice): 1.34E+08 p/s | PDI [4, 8]: 0.06 | Size [4, 8]: 68.99 nm | PDI [4, 9]: 0.06 | Size [4, 9]: 62.57 nm | Size (nm) [4, 12]: 55.29 nm | PDI [4, 10]: 0.07

CCCCCCCCC(CCCCCC)C(=O)OCCCCCCCCOC(=O)NC(COC(=O)NCCN1CCCCC1)C(=O)OCCCCCCCCOC(=O)C(CCCCCC)CCCCCCCC (stereo not shown) [Lipid 888]
Plasma (ng/mL), ionizable lipid concentration ([5]; 1 h post injection): 1635 ng/mL and 1440 ng/mL | Liver (ng/g), ionizable lipid concentration ([5]; 6 h post injection): 31120 ng/g and 47483 ng/g | Plasma (ng/mL), ionizable lipid concentration ([5]; 6 h post injection): 966 ng/mL and 975 ng/mL | Plasma (ng/mL), ionizable lipid concentration ([5]; 96 h post injection): 28.6 ng/mL (2×) and 12.9 ng/mL | Liver (ng/g), ionizable lipid concentration ([5]; 168 h post injection): 2277 ng/g and 2814 ng/g | Plasma (ng/mL), ionizable lipid concentration ([5]; 168 h post injection): 9.51 ng/mL and 8.26 ng/mL | concentration at 6 h [5, 13]: 48800 ng/g | concentration at 168 h ([5]; liver, 168 h post injection, read-out: Liver (ng/g), ionizable lipid concentration): 1640 ng/g | concentration at 1 h ([5]; plasma, 1 h post injection): 1640 ng/mL | concentration at 6 h ([5]; plasma, 6 h post injection, read-out: Plasma (ng/mL), ionizable lipid concentration): 966 ng/mL | concentration at 168 h ([5]; plasma, 168 h post injection, read-out: Plasma (ng/mL), ionizable lipid concentration): 9.51 ng/mL | In vitro cell viability (%) (Mean) (Hep G2 cells [1]; Formulation No. 001, RNA No. 331, 1 μg/mL RNA-LNPs): 89.73% | EE (%) [2, 8]: 97.48% | EE (%) [2, 9]: 93.81% | In vitro Expression (Mean) (Hep G2 cells [3]; Formulation No. 001, RNA No. 331 (firefly-luciferase)): 4.84E+05 | Liver (p/s) (Mean) (Balb/c mice; [14]): 2.18E+08 p/s | Spleen (p/s) (Mean) (Balb/c mice; [14]): 7.61E+07 p/s | Whole body (p/s) (Mean) (Balb/c mice; [14]): 1.35E+09 p/s | Size (nm) ([4]; Formulation No. 001 (Ionizable lipid:DSPC:cholesterol:DMG-PEG2000 = 50:10:38.5:1.5, N/P 6)): 62.46 nm | PDI [4, 8]: 0.05 | Size [4, 8]: 59.39 nm | PDI [4, 9]: 0.01
